{
  "source": "patent US5376658A",
  "about": "“5,10-methylene-tetrahydrofolate as a modulator of a chemotherapeutic agent” (priority 1993, dated 1994)",
  "key": {"[1]": {"system": "hepatic colonic carcinoma", "test": "Tumor weight in rats bearing transplanted hepatic colonic carcinoma", "type": "in vivo, rat", "source_text": "(§1) The present inventors have considerable experience with this model, and the antitumor effects of 5-FU shown are typical results, as are the TS and folate assays of control and 5-FU-only-treated rats. […] In fact, the \"free TS\" levels in the (6R,S)-FH4 -only-treated rats were the lowest of all arms of the study.\n>94% by HPLC). The (6 R,S)FH 4 was weighed, dissolved in normal\nsaline, and injected daily by tail vein administration using the airfree\nProtector device to prevent oxidative destruction of the folate.\n(§2) ^b Inoculation of 1 × 10^6 viable colon tumor\n(§3) (nitrosoguanidineinduced) cells under the liver capsule on Day 1 (Carlsso\n(§4) et al., Anticancer Res. 10:813-16 (1990)). Animals sacrificed on Day 17\n(§5) for excision of single liver tumor nodules for pharmacodynamic studies."}, "TS": {"system": "TS", "test": "TS assay in liver tumors of rats bearing transplanted hepatic colonic carcinoma", "type": "in vivo, rat", "details": "30 mg/kg each; 24 h after last injection; control 18.96", "source_text": "as §1, §2, §3, §4, §5\n(§6) ^d Assays done as described (Spears et al. Adv. Exp. Med. Biol."}, "[2]": {"system": "5,10-CH2 FH4 and FH4 levels in liver tumor", "test": "Folate assay (5,10-CH2 FH4 and FH4) in liver tumors of rats", "type": "in vivo, rat", "details": "30 mg/kg each, 24 h after last injection", "source_text": "as §1, §2, §3, §4, §5, §6"}, "[3]": {"details": "cited from earlier work"}, "[4]": {"system": "CH2 FH4 and FH4 in breast cancer biopsies", "test": "CH2 FH4 and FH4 levels in breast cancer biopsies during L-serine infusion after high-dose (6R,S)-leucovorin", "type": "in vivo, human", "set-up": "CH2 FH4 / FH4: unit not given here", "protocol": "(§7) As noted previously (see pages 5-6) and mentioned in C. P. Spears, et al., Proc. Am. Soc. Clin. Oncol. 8:69 (1989), the inventors have used pharmacologic intervention to convert intracellular FH4 to CH2 FH4 in patients receiving high-dose reduced folate therapy combined with weekly i.v. bolus 5-FU, 450 mg/sq. m. The method used was administration of i.v. L-serine, 15.0 grams, over 1 hour after the end of overnight high-dose (6R,S)-leucovorin i.v. infusion.\nIn contrast to the data shown in Tables II and III, the inventors were able to also assay for intratumoral FH4 in addition to CH2 FH4 (this latter is also referred to as \"FBC\" in those Tables or Folate-Binding Capacity), at time points during this pharmacologic forcing of metabolism of FH4 to CH2 FH4 through the enzyme, serine hydroxymethyltransferase. This enzyme splits a carbon of L-serine to generate formaldehyde in the presence of FH4.\n^a Minutes after initiation of 15.0 gram LSerine i.v. 60min infusion,\nafter end of overnight (6R,S)leucovorin highdose i.v. infusion.\n^b Assays performed as described (C.P. Spears et al., Adv. Exp. Med."}, "breast cancer": {"system": "breast cancer", "test": "Clinical effect in patients receiving 5-FU plus high-dose (6R,S)-leucovorin with L-serine or glycine", "type": "in vivo, human", "details": "person; L-serine i.v. added to 5-FU/(6R,S)-leucovorin, subsequently glycine 10 grams i.v.", "protocol": "as §7, with “Soc.” left out"}, "[5]": {"test": "Dimedone trapping of labile 14CH2O group on dilution", "type": "physicochemical", "details": "46,664 DPM diluted to 1 ml in H2O, 37° C.", "source_text": "This requirement for a large excess of formaldehyde to shift the equilibrium between FH4 and CH2 FH4 (Eq. 1) was found by the inventors to\nbe independent of temperature, pH or the formaldehyde content of charcoal isolation, the presence of air exposure, or the presence of reducing agents. In addition, [11-^14 C]CH2 FH4 prepared as described (Moran et al., Proc. Natl. Acad. Sci. USA 76:1456-60 (1979)), and DEAE-purified (as the concentrated material) of excess ^14 CH2 O, was confirmed to have a labile ^14 CH2 O group by dimedone trapping."}, "gastrointestinal cancers": {"system": "gastrointestinal cancers", "details": "human, in vivo; cited from earlier work"}, "[6]": {"details": "separate confirmatory experiment, 6 rats/group"}, "[7]": {"details": "patient four, 25 min after initiation of 15.0 g L-serine i.v."}, "[8]": {"details": "patient four, 82 min after initiation of 15.0 g L-serine i.v."}, "[9]": {"details": "patient two, 22 min after initiation of 15.0 g L-serine i.v."}, "[10]": {"details": "patient two, 65 min after initiation of 15.0 g L-serine i.v."}},
  "data": [
    {"smiles": "Cl.Cl.Nc1nc2c(c(=O)[nH]1)NC(CNc1ccc(C(=O)N[C@@H](CCC(=O)O)C(=O)O)cc1)CN2.O", "note": "(mixture of isomers) [(6R,S)-FH4, 5,6,7,8Tetrahydropteroyl-L-glutamic acid dihydrochloride monohydrate]", "values": [
      {"measurement": "Tumor weight", "setting": "[1]; Day 17 after transplantation, 30 mg/kg each, average of 3 rats, control 5.84", "value": 10.43, "unit": "g"},
      {"measurement": "tumor growth, % of control tumor weight", "setting": "[1]; [6]", "value": 171, "unit": "%"},
      {"measurement": "tumor size (weight)", "setting": "[1]; [6]", "value": "6.0 ± 1.1", "unit": "g"},
      {"measurement": "TS", "setting": "TS", "value": 7.13, "unit": "p mole/g"},
      {"measurement": "5,10-CH2 FH4", "setting": "[2]; control 0.69", "value": 2.93, "unit": "nmol/g"},
      {"measurement": "FH4", "setting": "[2]; control 1.18", "value": 2.31, "unit": "nmol/g"},
      {"measurement": "stability of powder", "setting": "[3]; anaerobic conditions, room temperature", "value": "stable even at room temperature, for a year or more"},
      {"measurement": "stability under anaerobic conditions", "setting": "[3]; anaerobic conditions", "value": "completely stable"},
      {"measurement": "degradation of solution", "setting": "[3]; in […], exposed to air", "value": 90, "unit": "%"}
    ]},
    {"smiles": "N[C@@H](CO)C(=O)O", "note": "[L-serine]", "values": [
      {"measurement": "Ratio of FH4/CH2 FH4", "setting": "[4]; patient four, 25 min", "value": 2.9},
      {"measurement": "CH2 FH4", "setting": "[4]; [7]", "value": 0.396},
      {"measurement": "FH4", "setting": "[4]; [7]", "value": 1.128},
      {"measurement": "Ratio of FH4/CH2 FH4", "setting": "[4]; patient four, 82 min", "value": 3.0},
      {"measurement": "CH2 FH4", "setting": "[4]; [8]", "value": 0.475},
      {"measurement": "FH4", "setting": "[4]; [8]", "value": 1.420},
      {"measurement": "Ratio of FH4/CH2 FH4", "setting": "[4]; patient two, 22 min", "value": 3.4},
      {"measurement": "CH2 FH4", "setting": "[4]; [9]", "value": 0.253},
      {"measurement": "FH4", "setting": "[4]; [9]", "value": 0.854},
      {"measurement": "Ratio of FH4/CH2 FH4", "setting": "[4]; patient two, 65 min", "value": 2.7},
      {"measurement": "CH2 FH4", "setting": "[4]; [10]", "value": 0.340},
      {"measurement": "FH4", "setting": "[4]; [10]", "value": 0.907},
      {"measurement": "Clinical effect, third patient", "setting": "breast cancer", "value": "rapid acceleration of objective tumor growth and tumor symptoms"}
    ]},
    {"smiles": "Nc1nc2c(c(=O)[nH]1)N1[14CH2]N(c3ccc(C(=O)N[C@@H](CCC(=O)O)C(=O)O)cc3)CC1CN2", "note": "(stereo partly shown) [[11-^14 C]-CH2 FH4]", "values": [
      {"measurement": "label recoverable by chloroform extraction of dimedone (methone) product", "setting": "[5]", "value": 67.8, "unit": "%"}
    ]},
    {"smiles": "Nc1nc2ncc(CNc3ccc(C(=O)N[C@@H](CCC(=O)O)C(=O)O)cc3)nc2c(=O)[nH]1", "note": "[folic acid]", "values": [
      {"measurement": "effect of addition to 5-FU therapy", "setting": "gastrointestinal cancers", "value": "increase in toxicity without improved response rates"}
    ]},
    {"smiles": "NCC(=O)O", "note": "[glycine]", "values": [
      {"measurement": "Clinical effect, third patient", "setting": "breast cancer", "value": "rapid response to 5-FU therapy"}
    ]}
  ]
}
